In US9993462B2, “Hydantoin derivative-containing pharmaceutical composition” (Chugai Seiyaku Kabushiki Kaisha, priority 2014, dated 2018):

Key:
[1] = tested on: model rabbits with partially removed meniscus; assay: Model rabbits with partially removed meniscus (osteoarthritis model), lesion area of articular cartilage; assay type: in vivo, rabbit; settings: continuous administration to the knee joint by osmotic pump, 3.0 or 30 μg/mL, 14 days after surgery
Text: Twelve-week old male NZW rabbits (Oriental Yeast Co., Ltd.) were acclimated for five days, and then under isoflurane anesthesia, the lateral skin of the left knee joint was incised and the lateral collateral ligament and the sesamoid ligament were surgically removed to expose the lateral meniscus. The center of the lateral meniscus was excised at a width of 3 to 4 mm to produce an osteoarthritis model (Kikuchi T et al., Osteoarth Cart 1999; 4(2): 99-110). The tips of the three polyethylene tubes (PE60, Nippon Becton Dickinson Company) connected to three osmotic pumps (2ML1, Durect, Road Cupertino, Calif., US) that were embedded subcutaneously in the left femur were placed into the joint, and the drug solution was continuously administered to the knee joint. Each osmotic pump was filled with any of 1) vehicle control (50% dimethyl sulfoxide/50% physiological saline v/v); 2) Compound 7 at 3.0 μg/mL; or 3) Compound 7 at 30 μg/mL. […] Images of the surface structure of the lower leg bone were taken on a digital microscope (VHX-2000, Keyence Corporation), the area of the Indian ink-positive lesion site and the area of the entire lateral condyle were determined, and the proportion of the lesion site occupying the entire lateral condyle was calculated (FIG. 6).

normal rats [2] = assay: Bone mineral density after four weeks of repeated intravenous administration to normal rats; assay type: in vivo, rat; settings: intravenous once a day for four weeks
Protocol: Female RccHan: WIST rats obtained from Japan Laboratory Animals Inc. were acclimated for one week or longer under standard laboratory conditions of 20° C. to 26° C. and 30% to 70% humidity, and then used in experiments. The rats had free access to tap water and a standard rodent diet (CR-LPF) (Oriental Yeast Co., Ltd.).
Intravenous catheter was placed into eight-week old rats. The catheter was inserted from the femoral vein in the inguinal region, and the tip was extended into the caudal vena cava for placement at that site. The body weight was determined in the first week post-surgery, and the rats were divided into groups of ten animals per group so that the average body weight of each group would be even. Two days after group division, all rats were intravenously administered once a day repeatedly for four weeks. Administration was carried out by connecting an infusion pump (MEDFUSION SYRINGE INFUSION PUMP Model 2001) to the indwelling catheter.
The solvent (vehicle) was administered intravenously to the Vehicle-Control group. To the Compound 7-20 mg/kg, −30 mg/kg, and −50 mg/kg groups, Compound 7 dissolved in the vehicle was administered intravenously at a dose of 20 mg/kg, 30 mg/kg, and 50 mg/kg, respectively. For all groups, the administration volume was 5 mL/kg and the administration speed was 5 mL/kg/minute. The composition of the vehicle used was 5% dimethyl sulfoxide (Wako Pure Chemical Industries, Ltd.), 25% propylene glycol (Kanto Chemical Co., Inc.)/20% ethanol (Junsei Chemical Co., Ltd.)/15% hydroxypropyl-β-cyclodextrin (Nihon Shokuhin Kako Co., Ltd)/300 mM glycine (Wako Pure Chemical Industries, Ltd.)/192 mM sodium hydroxide (Wako Pure Chemical Industries, Ltd.)/physiological saline solution (Otsuka Pharmaceutical Factory, Inc.). Rats were euthanized under anesthesia the day after final administration by collecting blood from the abdominal aorta, and then autopsy was performed to collect the lumbar spine, lower leg bone, and mandible. The lumbar spine, lower leg bone, and mandible were stored in 70% ethanol. The bone mineral densities of the lumbar spine (second to fourth lumbar vertebrae), lower leg bone, and mandible were determined using a dual X-ray bone mineral scanner (DCS-600EX, Aloka).
The data are shown as mean value+standard error (SE). SAS preclinical package ver. 5.00 (SAS Institute Japan) was used to perform the following statistical analyses. The significance level was set to 5% on both sides. With regard to the lumbar spine, lower leg bone, and mandible bone mineral density, parametric Dunnett multiple comparison (*P<0.05) was performed for the three dosage groups of Compound 7 with the Vehicle-Control group as control.

normal rats [3] = assay: Growth plate cartilage histology after four weeks of repeated oral administration to normal rats; assay type: in vivo, rat
Protocol: Female RccHan: WIST rats obtained from Japan Laboratory Animals Inc. were acclimated for at least one week under standard laboratory conditions of 20° C. to 26° C. and 30% to 70% humidity, and then used in experiments. The rats had free access to tap water and a standard rodent diet (CE-2, Clea Japan Inc.) containing 1.1% calcium, 1.0% phosphoric acid, and 250 IU/100 g vitamin D3.
After body weight measurement for the six-week old rats, they were divided into groups so that the average body weight of each group of ten rats would be even. From the day following group division, all rats were administered once a day repeatedly for four weeks. The solvent (vehicle) was orally administered to the Vehicle-Control group. To the Compound 7-6 mg/kg group, Compound 7-60 mg/kg group, and Compound 7-600 mg/kg group, Compound 7 suspended in the vehicle was administered orally at a dose of 6 mg/kg, 60 mg/kg, and 600 mg/kg, respectively. For all groups, the volume of administration was 2 mL/kg. Propylene glycol (special grade, Kanto Chemical Co., Inc.) was used for the vehicle. The rats were euthanized under anesthesia one day after the final administration by collecting blood from the abdominal aorta, and then autopsy was performed to collect the femur. The femur was fixed using a 10% neutral buffered formalin solution, and after demineralization, samples of paraffin-embedded tissue sections (hematoxylin-eosin stained) were prepared. Distal ends of the femur of the produced samples were observed histopathologically under a light microscope.

[4] = 60 mg/kg oral once a day for four weeks, 10 per group
[5] = 600 mg/kg oral once a day for four weeks, 10 per group

Cc1cc(N2C(=O)NC(=O)C2(C)C)cc(C)c1CCS(=O)(=O)N1CCC2(CC1)N=C(c1ccc(OC(F)(F)F)cc1)NC2=O [Compound 7, 1-(3,5-dimethyl-4-(2-((4-oxo-2-(4-(trifluoromethoxy)phenyl)-1,3,8-triazaspiro[4.5]deca-1-en-8-yl)sulfonyl)ethyl)phenyl)-5,5-dimethylimidazolidine-2,4-dione]
area of the lesion site in the articular cartilage of the lower leg bone [1]: reduce the area of the lesion site in a dose-dependent manner
percentage of increase in the lumbar spine bone mineral density with respect to the Vehicle-Control group (normal rats [2]; 20 mg/kg): 16%
percentage of increase of bone mineral density in the lower leg bone with respect to the Vehicle-Control group (normal rats [2]; 20 mg/kg): 7%
percentage of increase in the lumbar spine bone mineral density with respect to the Vehicle-Control group (normal rats [2]; 30 mg/kg): 21%
percentage of increase of bone mineral density in the lower leg bone with respect to the Vehicle-Control group (normal rats [2]; 30 mg/kg): 16%
percentage of increase of mandible bone mineral density relative to the Vehicle-Control group (normal rats [2]; 30 mg/kg): 7%
percentage of increase in the lumbar spine bone mineral density with respect to the Vehicle-Control group (normal rats [2]; 50 mg/kg): 25%
percentage of increase of bone mineral density in the lower leg bone with respect to the Vehicle-Control group (normal rats [2]; 50 mg/kg): 19%
Number of cases in which growth plate cartilage thickening was observed, Grade 1 (normal rats [3]; [4]): 5
Number of cases in which growth plate cartilage thickening was observed, Grade 2 (normal rats [3]; [4]): 3
Number of cases in which growth plate cartilage thickening was observed, Overall (normal rats [3]; [4]): 8
Number of cases in which growth plate cartilage thickening was observed, Grade 3 (normal rats [3]; [5]): 1
Number of cases in which growth plate cartilage thickening was observed, Grade 4 (normal rats [3]; [5]): 9
Number of cases in which growth plate cartilage thickening was observed, Overall (normal rats [3]; [5]): 10
thickening of the femoral growth plate cartilage in comparison to the Vehicle-Control group (in words) (normal rats [3]; 6, 60, 600 mg/kg oral once a day for four weeks): dose-dependent thickening
width of a representative growth plate cartilage (normal rats [3]; one individual of the 600 mg/kg group, from the tissue image of FIG. 8 (Vehicle-Control individual approximately 390 μm)): approximately 2940 μm
